# Measured values published in paper PMC6897379 (Clinical cancer research : an official journal of the …, 2019).
# Read-outs that look alike come from different tables or passages of the source.
# Key:
# [1] = cited from earlier work
# [2] = children, cited from earlier work
# [3] = tested on: atypical teratoid rhabdoid (ATRT) cell lines; details: ATRT cell lines that overexpress AAK with SMARCB1 mutations; cited from earlier work
# [4] = adults; twice daily for 7 days; DLT neutropenia and stomatitis; cited from earlier work
# ALL-8 xenograft = experiment: ALL-8 xenograft, comparison of dosing schedules; assay type: in vivo, NOD/SCID mice
# [5] = mice receiving 10 mg/kg; cited from earlier work
# [6] = tested on: p53-wildtype, therapy-refractory NBL cell lines; details: cited from earlier work
# ALL-19 xenograft = experiment: ALL-19 xenograft, comparison of dosing schedules; assay type: in vivo, NOD/SCID mice
# ALL xenografts = details: PPTP; cited from earlier work
# [7] = tested on: pediatric solid tumor models; details: cited from earlier work
# NBL xenografts = details: PPTP; cited from earlier work
# [8] = Plasma pharmacokinetics in children and adolescents, with UGT1A1 phenotype; assay type: in vivo, human; details: for concentration at 4 day: 80 mg/m^2, Alisertib Cmin Median (range), day 4, I/E, I, P
# [9] = Toxicity versus germline AURKA genotype; assay type: in vivo, human
# [10] = Phase 2 trial toxicity monitoring; assay type: in vivo, human
# [11] = tested on: relapsed or refractory solid tumors; details: cited from earlier work
# [12] = adults, 50 mg enteric coated tablets
# [13] = population PK model, 363 adults, 7 single agent trials
# [14] = Schedule A, 10.4 mg/kg oral gavage twice daily × 7 days
# [15] = Schedule A, twice daily × 7 days
# [16] = Schedule B, 10.4 mg/kg oral gavage twice daily × 5 days × 3 weeks
# [17] = Schedule B, twice daily × 5 days × 3 weeks
# [18] = human, in vivo, 1 cycle (21 days)
smiles,measurement,setting,value
"COc1cc(Nc2ncc3c(n2)-c2ccc(Cl)cc2C(c2c(F)cccc2OC)=NC3)ccc1C(=O)O [alisertib, Alisertib]",Area under concentration time curve (AUC),[1]; [12],20.9 µM·h
same,Steady state trough concentration (Cmin),[1]; [12],exceeding 1 μM
same,AUC0–24 h,[1]; patients receiving 50 mg BID,40 µM·h
same,Cmax,[1]; patients receiving 50 mg BID,1300 nM
same,Apparent clearance (CL/F),[1]; [13],4.25 L/h
same,Terminal half-life,[1]; [13],19.3 h
same,Average trough concentrations,[1]; recommended phase 2 dose of 50 mg BID for 7 days,exceeded 1 μM
same,Trough 24 hours after the first dose,[2]; 80 mg/m^2 dose level,1.1 µM
same,Cmax,[2]; recommended dose 80 mg/m^2,7500 ± 100 nM
same,Effect on cell lines,[3],induce cell death and augment radiation sensitivity
same,Recommended dose,[4],50 mg
same,Objective response,ALL-8 xenograft; Schedule A and Schedule B,neither of the treatment schedules induced an objective response
same,Median EFS Treated,ALL-8 xenograft; [14],19.8 days
same,EFS T-C,ALL-8 xenograft; [15],10.9 days
same,EFS T/C,ALL-8 xenograft; [15],2.2
same,Median EFS Treated,ALL-8 xenograft; [16],31.9 days
same,EFS T-C,ALL-8 xenograft; [17],23.0 days
same,EFS T/C,ALL-8 xenograft; [17],3.6
same,"Human cells in the bone marrow, lowest levels achieved",ALL-8 xenograft; both alisertib schedules,approximately 20%
same,"Human cells in the spleen, lowest levels achieved",ALL-8 xenograft; both alisertib schedules,5–10%
same,"Additional delay of leukemia progression, Schedule B compared with Schedule A",ALL-8 xenograft; p=0.004,12.1 days
same,12 h level,[5],1.2 µM
same,AUC0–24 h,[5],39 µM·h
same,Cmax,[5],16000 nM
same,Activity in cell lines,[6],active
same,Median EFS Treated,ALL-19 xenograft; [14],13.6 days
same,Leukemia progression compared with controls,"ALL-19 xenograft; Schedule A, serial peripheral blood parameters",not significantly different from that of controls
same,EFS T-C,ALL-19 xenograft; [15],7.0 days
same,EFS T/C,ALL-19 xenograft; [15],2.0
same,Median Response Score,ALL-19 xenograft; [15],PD2
same,Median EFS Treated,ALL-19 xenograft; [16],31.2 days
same,EFS T-C,ALL-19 xenograft; [17],24.6 days
same,EFS T/C,ALL-19 xenograft; [17],4.7
same,Xenografts with maintained complete responses,ALL xenografts,6 out of 6
same,Event free survival,"[7]; Wilms tumor, rhabdomyosarcoma and osteosarcoma xenograft models",Statistically significant improvement
same,Solid tumor models with objective responses,[7]; pediatric xenograft models,80%
same,Xenografts with maintained complete responses,NBL xenografts,3 of 7
same,Patients exceeding the 1 μM target trough concentration on day 4,[8]; 26/39 patients,67%
same,Difference in population mean trough concentrations,"[8]; IM/PM versus EM, p 0.0091",1.05 µM
same,Patients with Cmin exceeding 1μM on day 7,"[8]; human, in vivo, 7 day",41%
same,concentration at 4 day,"[8]; human, plasma, oral, Grade ≥ 2: Yes (n=8)",1800 nM
same,concentration at 4 day,"[8]; human, plasma, oral, Grade ≥ 2, No (n=8)",2220 nM
same,concentration at 7 day,"[8]; human, plasma, oral, 80 mg/m^2, Median Cmin on day 7, cycle 1",900 nM
same,Difference in population mean trough concentrations,"[8]; with versus without ≥ grade 2 toxicities, not statistically significant",0.08 µM
same,Cycle 1 DLT No,[9]; AURKA 91 A>T VV,8
same,Grade 2+ Toxicity Yes,[9]; AURKA 91 A>T VV,8
same,Cycle 1 DLT Yes,[9]; AURKA 91 A>T WV,5
same,Grade 2+ Toxicity No,[9]; AURKA 91 A>T WV,5
same,Cycle 1 DLT Yes,[9]; AURKA 91 A>T WW,8
same,Grade 2+ Toxicity No,[9]; AURKA 91 A>T WW,9
same,Cycle 1 DLT No,[9]; AURKA 169G>A VV,2
same,Grade 2+ Toxicity No,[9]; AURKA 169G>A VV,1
same,Grade 2+ Toxicity Yes,[9]; AURKA 169G>A VV,1
same,Cycle 1 DLT No,[9]; AURKA 169G>A WV,18
same,Cycle 1 DLT Yes,[9]; AURKA 169G>A WV,3
same,Grade 2+ Toxicity No,[9]; AURKA 169G>A WV,4
same,Cycle 1 DLT Yes,[9]; AURKA 169G>A WW,10
same,Grade 2+ Toxicity No,[9]; AURKA 169G>A WW,9
same,Grade 2+ Toxicity Yes,[9]; AURKA 169G>A WW,54
same,Cycle 1 DLT No,[9]; AURKA Haplotype H1,25
same,Cycle 1 DLT Yes,[9]; AURKA Haplotype H1,5
same,Grade 2+ Toxicity No,[9]; AURKA Haplotype H1,4
same,Cycle 1 DLT Yes,[9]; AURKA Haplotype H2,8
same,Grade 2+ Toxicity No,[9]; AURKA Haplotype H2,10
same,Cycle 1 DLT Yes,[9]; Total genotyped patients,13
same,Grade 2+ Toxicity No,[9]; Total genotyped patients,14
same,Dehydration Grade 3,"[10]; alisertib related, all cycles (n=500)",6 (1.2%) n (%)
same,Patients with fatal adverse events possibly related to alisertib,[10]; during cycle 1,two
same,ALT increased Grade 3,"[10]; human, in vivo",17 (3.4%) n (%)
same,AST increased Grade 3,"[10]; human, in vivo",10 (2%) n (%)
same,Alisertib-related grade 3 or 4 anemia,"[10]; human, in vivo",13.6%
same,Alisertib-related grade 3 or 4 leukopenia,"[10]; human, in vivo",33%
same,Alisertib-related grade 3 or 4 lymphopenia,"[10]; human, in vivo",12.2%
same,Alisertib-related grade 3 or 4 neutropenia,"[10]; human, in vivo",51.8%
same,Alisertib-related grade 3 or 4 thrombocytopenia,"[10]; human, in vivo",20.8%
same,Anemia Grade 3,"[10]; human, in vivo",63 (12.6%) n (%)
same,Anemia Grade 4,"[10]; human, in vivo",5 (1%) n (%)
same,Anorexia Grade 3,"[10]; human, in vivo",1 (0.2%) n (%)
same,Depression Grade 4,"[10]; human, in vivo",1 (0.2%) n (%)
same,Diarrhea Grade 3,"[10]; human, in vivo",2 (0.4%) n (%)
same,Dizziness Grade 3,"[10]; human, in vivo",14 (2.8%) n (%)
same,Enterocolitis Grade 3,"[10]; human, in vivo",1 (0.2%) n (%)
same,Febrile neutropenia Grade 3,"[10]; human, in vivo",18 (3.6%) n (%)
same,GGT increased Grade 3,"[10]; human, in vivo",1 (0.2%) n (%)
same,Hepatic hemorrhage Grade 5,"[10]; human, in vivo",1 (0.2%) n (%)
same,Hyperbilirubinemia Grade 3,"[10]; human, in vivo",3 (0.6%) n (%)
same,Hypersomnia Grade 3,"[10]; human, in vivo",1 (0.2%) n (%)
same,Hyperuricemia Grade 4,"[10]; human, in vivo",1 (0.2%) n (%)
same,Hypoalbuminemia Grade 3,"[10]; human, in vivo",1 (0.2%) n (%)
same,Hypocalcemia Grade 3,"[10]; human, in vivo",1 (0.2%) n (%)
same,Hypokalemia Grade 3,"[10]; human, in vivo",4 (0.8%) n (%)
same,Hypokalemia Grade 4,"[10]; human, in vivo",1 (0.2%) n (%)
same,Hyponatremia Grade 3,"[10]; human, in vivo",3 (0.6%) n (%)
same,Hypophosphatemia Grade 3,"[10]; human, in vivo",1 (0.2%) n (%)
same,INR increased Grade 3,"[10]; human, in vivo",1 (0.2%) n (%)
same,Infection Grade 3,"[10]; human, in vivo",1 (0.2%) n (%)
same,Leukopenia Grade 3,"[10]; human, in vivo",117 (23.4%) n (%)
same,Leukopenia Grade 4,"[10]; human, in vivo",48 (9.6%) n (%)
same,Lymphopenia Grade 3,"[10]; human, in vivo",47 (9.4%) n (%)
same,Lymphopenia Grade 4,"[10]; human, in vivo",14 (2.8%) n (%)
same,Nausea Grade 3,"[10]; human, in vivo",2 (0.4%) n (%)
same,Neutropenia Grade 3,"[10]; human, in vivo",124 (24.8%) n (%)
same,Neutropenia Grade 4,"[10]; human, in vivo",137 (27.4%) n (%)
same,Oral mucositis Grade 3,"[10]; human, in vivo",19 (3.8%) n (%)
same,Palmar-plantar erythrodysesthesia Grade 3,"[10]; human, in vivo",2 (0.4%) n (%)
same,Photophobia Grade 3,"[10]; human, in vivo",1 (0.2%) n (%)
same,Pneumonia Grade 3,"[10]; human, in vivo",1 (0.2%) n (%)
same,Respiratory failure Grade 5,"[10]; human, in vivo",1 (0.2%) n (%)
same,Serum amylase increased Grade 3,"[10]; human, in vivo",1 (0.2%) n (%)
same,Thrombocytopenia Grade 3,"[10]; human, in vivo",54 (10.8%) n (%)
same,Thrombocytopenia Grade 4,"[10]; human, in vivo",50 (10%) n (%)
same,Tumor lysis syndrome Grade 4,"[10]; human, in vivo",1 (0.2%) n (%)
same,Urinary tract infection Grade 3,"[10]; human, in vivo",1 (0.2%) n (%)
same,Vomiting Grade 3,"[10]; human, in vivo",2 (0.4%) n (%)
same,Patients who experienced dose limiting toxicity,[10]; [18],18 patients
same,"Patients who experienced dose limiting toxicity, percent",[10]; [18],13%
same,Oral pain Grade 3,"[10]; human, in vivo, po",5 (1%) n (%)
same,Most frequent toxicity,[10]; in vivo,myelosuppression
same,Duration of stable disease,"[11]; 8 children, phase 1 trial",5–35 cycles
same,Children with stable disease,"[11]; NBL (n=4) and sarcoma (n=4), of 33 response evaluable children",8
same,Recommended phase 2 dose,"[11]; children and adolescents, orally, once daily for 7 days",80 mg/m^2
same,Children with a PR,"[11]; hepatoblastoma, of 33 response evaluable children",one
